Counter-ions that a name gives are not always drawn. Like-named read-outs stand apart in the source and are kept apart here. One block for each compound: values may come before it.
Experiments:
HDAC = HDAC fluorimetric enzyme assay (HeLa nuclear extract); assay type: biochemical
Experimental: HDAC inhibitors were screened using an HDAC fluorimetric assay kit (AK-500, Biomol, Plymouth Meeting, Pa.).
Each assay was setup as follows: Defrosted all kit components and kept on ice until use. […] Prepared dilutions of Trichostatin A (TSA, positive control) and tested compounds in assay buffer (5× of final concentration). Diluted Fluor de Lys™ Substrate in assay buffer to 100 uM (50 fold=2× final). Diluted Fluor de Lys™ developer concentrate 20-fold (e.g. 50 μl plus 950 μl Assay Buffer) in cold assay buffer. Second, diluted the 0.2 mM Trichostatin A 100-fold in the 1× Developer (e.g. 10 μl in 1 ml; final Trichostatin A concentration in the 1× Developer=2 μM; final concentration after addition to HDAC/Substrate reaction=1 μM). Added Assay buffer, diluted trichostatin A or test inhibitor to appropriate wells of the microtiter plate. Added diluted HeLa extract or other HDAC sample to all wells except for negative controls.

[1] = target: T1, human EGFR(His672-Ala1210) (Homo sapiens, UniProt P00533); assay: EGFR kinase assay (HTScan EGF Receptor Kinase Assay Kit); assay type: biochemical; conditions: FIG. 1
T1 construct: a construct expressing human EGFR(His672-Ala1210); GST (N); purchased Cell Signaling Technologies; host or cells: baculovirus expression system
T1 sequence (P00533 672-1210): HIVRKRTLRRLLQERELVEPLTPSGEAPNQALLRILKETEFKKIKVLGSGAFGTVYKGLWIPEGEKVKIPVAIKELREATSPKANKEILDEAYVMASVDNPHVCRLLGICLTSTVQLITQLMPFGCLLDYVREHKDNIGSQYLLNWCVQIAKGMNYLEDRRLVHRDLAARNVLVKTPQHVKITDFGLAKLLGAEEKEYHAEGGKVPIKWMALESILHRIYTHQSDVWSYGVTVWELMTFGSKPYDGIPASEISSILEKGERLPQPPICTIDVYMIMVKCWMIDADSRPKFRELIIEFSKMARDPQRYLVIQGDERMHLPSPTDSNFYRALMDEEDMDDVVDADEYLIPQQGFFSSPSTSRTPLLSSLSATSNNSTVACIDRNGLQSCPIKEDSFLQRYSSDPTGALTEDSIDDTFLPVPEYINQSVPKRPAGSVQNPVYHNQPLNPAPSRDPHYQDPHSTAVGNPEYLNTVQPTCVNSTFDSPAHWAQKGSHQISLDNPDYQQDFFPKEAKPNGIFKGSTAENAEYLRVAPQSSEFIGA
Experimental: The ability of compounds to inhibit receptor kinase (EGFR) activity was assayed using HTScan™ EGF Receptor Kinase Assay Kits (Cell Signaling Technologies, Danvers, Mass.). […] The protein was purified by one-step affinity chromatography using glutathione-agarose.
Immediately transfer enzyme from −80° C. to ice. Allowed enzyme to thaw on ice. […] Returned immediately to ice. […] Incubated reaction plate at room temperature for 30 minutes. […] Added 100 μl/well primary antibody. Incubated at room temperature for 60 minutes. […] Added 100 μl/well diluted antibody. Incubated at room temperature for 30 minutes. […] Incubated at room temperature for 5 minutes.

[2] = tested on: colon and breast cancer cells (HCT-116, SKBr3); assay: Induction of apoptosis (Caspase 3&7 activity); assay type: cell-based; conditions: HCT-116 and SKBr3, 24 hours; FIG. 4
[3] = both, Sprague Dawley, rat, in vivo, iv, 7 days
Caki-1 Renal carcinoma = assay: Cell proliferation assay (ATPlite); assay type: cell-based; conditions: Homo sapiens; Caki-1, Renal carcinoma (Table D); read-out: IC50 in cancer cell line
Experimental: (§1) Cell Proliferation Assay:
(§2) Cancer cell lines were plated at 5,000 to 10,000 per well in 96-well flatted bottomed plates with various concentration of compounds. […] Growth inhibition was accessed by adenosine triphosphate (ATP) content assay using Perkin Elmer ATPlite kit. ATPlite is an ATP monitoring system based on firefly luciferase. Briefly, 25 μl of mammalian cell lysis solution was added to 50 μl of phenol red-free culture medium per well to lyse the cells and stabilize the ATP. 25 μl of substrate solution was then added to the well and subsequently the luminescence was measured.

[4] = Dilution study with D5W (precipitation, chemical stability); assay type: physicochemical; conditions: for Dilution with D5W: salt in 30% CAPTISOL; for Chemical stability in diluted solution: salt in 30% CAPTISOL diluted with D5W
[5] = male, CD-1, mouse, in vivo, iv, 9 days
[6] = Stability of CAPTISOL solution at room temperature; assay type: physicochemical; conditions: 25 mg/ml compound 12 with 8.6 mg tartaric acid in 30% CAPTISOL
A549 NSCLC Xenograft = assay: A549 NSCLC xenograft model; assay type: in vivo; conditions: FIG. 11A, 11B
[7] = male, CD-1, mouse, in vivo, ip, 7 days
[8] = both, Sprague Dawley, rat, in vivo, iv, 8 days
[9] = Pharmacokinetic study of compound 12 formulation in rats; assay type: in vivo; conditions: hydrochloride salt in 30% CAPTISOL, 20 and 60 mg/kg iv, FIG. 14
Experimental: (§3) Compound was administered via an intravenous (iv) infusion.
Rat: 20 mg/kg for 5 min i.v. infusion
(§4) Plasma samples were prepared by protein precipitation. An internal standard was added into plasma samples. […] The supernatant was then injected onto LC/MS/MS.
(§5) Samples were compared to standards made in plasma. These standards were prepared by serial dilution.

[10] = Pharmacokinetic study of compound 12 in dogs; assay type: in vivo; conditions: 25 mg/kg tartrate salt in 30% CAPTISOL, FIG. 19
Experimental: as §3
Beagle: 25 mg/kg for 30 min i.v. infusion
as §4, §5

[11] = Pharmacokinetic study of compound 12 formulation in mice (iv, ip); assay type: in vivo; conditions: hydrochloride salt
[12] = tested on: HPAC pancreatic cancer cells; assay: HPAC pancreatic cancer tumor model; assay type: in vivo; conditions: 120 mg/kg in 30% CAPTISOL (iv/ip) daily; FIG. 12A
[13] = tested on: HDAC in MDA-MB-468 breast cancer cell line; assay: Histone acetylation (Ac-H4, Ac-H3 accumulation) in cells; assay type: cell-based; conditions: FIG. 2
From the text: (§6) FIG. 2 illustrates inhibition of HDAC and EGFR in MDA-MB-468 breast cancer cell line: (a) Ac-H4 Accumulation, (b) Ac-H3 Accumulation, (c) EGFR inhibition.

[14] = tested on: various cancer cell lines; assay: Cell proliferation assay, various cancer cell lines; assay type: cell-based; conditions: Table D, FIG. 3
Experimental: as §1
Cancer cell lines were plated at 5,000 to 10,000 per well in 96-well flatted bottomed plates with various concentration of compounds. The cells were incubated with compounds for 72 hours in the presence of 0.5% of fetal bovine serum. Growth inhibition was accessed by adenosine triphosphate (ATP) content assay using Perkin Elmer ATPlite kit. ATPlite is an ATP monitoring system based on firefly luciferase. Briefly, 25 μl of mammalian cell lysis solution was added to 50 μl of phenol red-free culture medium per well to lyse the cells and stabilize the ATP. 25 μl of substrate solution was then added to the well and subsequently the luminescence was measured.

[15] = tested on: EGFR in MDA-MB-468 breast cancer cell line; assay: EGFR phosphorylation in cells; assay type: cell-based; conditions: FIG. 2
From the text: as §6

[16] = tested on: MDA-MB-231 Breast adenocarcinoma; assay: Cell proliferation assay (ATPlite); assay type: cell-based; conditions: Homo sapiens; MDA-MB-231, Breast adenocarcinoma (Table D); read-out: IC50 in cancer cell line
Experimental: as §1, §2

Prostate_PC3 = assay: Cell proliferation assay (ATPlite); assay type: cell-based; conditions: PC-3, Prostate adenocarcinoma (Table D); read-out: IC50 in cancer cell line
Experimental: as §1, §2

Colon_HCT116 = assay: Cell proliferation assay (ATPlite); assay type: cell-based; conditions: Homo sapiens, HCT-116; HCT116, Colon cancer (Table D); read-out: IC50 in cancer cell line
Experimental: as §1, §2

Breast_MCF7 = assay: Cell proliferation assay (ATPlite); assay type: cell-based; conditions: Homo sapiens, MCF7; MCF-7, Breast adenocarcinoma (Table D); read-out: IC50 in cancer cell line
Experimental: as §1, §2

Breast_SkBr3 = assay: Cell proliferation assay (ATPlite); assay type: cell-based; conditions: Homo sapiens, SK-BR-3; SKBr3, Breast carcinoma (Table D); read-out: IC50 in cancer cell line
Experimental: as §1, §2

[17] = pH of salt solution in 30% CAPTISOL; assay type: physicochemical; conditions: salt in 30% CAPTISOL

Compound: C#Cc1cccc(Nc2ncnc3cc(OC)c(OCCCCCCC(=O)NO)cc23)c1 [Compound 12, 7-(4-(3-ethynylphenylamino)-7-methoxyquinazolin-6-yloxy)-N-hydroxyheptanamide]
cell apoptosis measured by increased Caspase 3&7 activity [2]: 4-11 times
dose without significant change in body weight or food consumption [3]: up to 100 mg/kg
IC50 (Caki-1 Renal carcinoma): ≤ 0.05 µM
stability of diluted solution at room temperature ([4]; 60 mg/ml compound 12 with tartaric acid (1.3 eq) in 30% CAPTISOL, diluted in 1x water and 2x D5W): > 12 h
dose without significant change in body weight [5]: up to 200 mg/kg
stability of solution [6]: stable at room temperature
effect on tumor growth / tumor size (A549 NSCLC Xenograft): attenuated tumor growth
activity in EGFR enzyme assay compared with erlotinib [1]: more active than erlotinib and SAHA
dose without significant change in body weight [7]: up to 100 mg/kg
dose without significant change in body weight [8]: up to 200 mg/kg
dose proportionality of plasma concentration [9]: proportional to the dose
concentration in plasma in 4 hours [10]: less than 10 mg/ml
dose proportionality of concentration ([11]; 20 and 60 mg/kg, iv and ip): dose proportional when administered intravenously but not intraperitoneally
half-life in tissue versus plasma ([11]; lung, colon, plasma): greater than that in plasma
attenuation of tumor growth [12]: greater attenuation of tumor growth than either erlotinib (po) or vehicle
inhibition of histone acetylation compared with SAHA [13]: improvement in inhibition of histone acetylation
anti-proliferative activity compared with Erlotinib, SAHA and their combination [14]: more active than Erlotinib and SAHA
inhibition of EGFR phosphorylation compared with Erlotinib [15]: improvement in inhibition of histone acetylation and EGFR phosphorylation

Compound: COc1cc2ncnc(NCc3cccc(Br)c3)c2cc1OCCCCCCC(=O)NO [Compound 89, 7-(4-(3-bromobenzylamino)-7-methoxyquinazolin-6-yloxy)-N-hydroxyheptanamide]
IC50 (HDAC): < 0.1 µM

Compound: C#Cc1cccc(Nc2ncnc3cc(OC)c(OCCCCCCC(=O)NO)cc23)c1 [HCl]
Dilution with D5W [4]: >10x
Chemical stability in diluted solution [4]: >12 h
pH [17]: 2-3

Compound: C#Cc1cccc(Nc2ncnc3cc(OC)c(OCCCCCCC(=O)NO)cc23)c1 [Sodium]
Dilution with D5W [4]: >10x
Chemical stability in diluted solution [4]: >12 h
pH [17]: 10-11

Compound: Citric Acid
Dilution with D5W [4]: >10x
Chemical stability in diluted solution [4]: >12 h

Continued, in another order:

IC50 (HDAC): < 0.1 µM
activity in HDAC enzyme assay compared with SAHA (HDAC; FIG. 1): more active than erlotinib and SAHA
activity in EGFR enzyme assay compared with erlotinib [1]: more active than erlotinib and SAHA
Compound: COc1cc2ncnc(Nc3ccc(F)c(Cl)c3)c2cc1OCCCCCCC(=O)NO [Compound 6, 7-(4-(3-Chloro-4-fluorophenylamino)-7-methoxyquinazolin-6-yloxy)-N-hydroxyheptanamide]

IC50 (HDAC): < 0.1 µM
Compound: COc1cc2ncnc(NCc3ccc(F)c(F)c3)c2cc1OCCCCCCC(=O)NO [Compound 87, 7-(4-(3,4-difluorobenzylamino)-7-methoxyquinazolin-6-yloxy)-N-hydroxyheptanamide]

IC50 (HDAC): < 0.1 µM
Compound: COc1cc2ncnc(NCc3ccc(F)c(Cl)c3)c2cc1OCCCCCCC(=O)NO [Compound 88, 7-(4-(3-chloro-4-fluorobenzylamino)-7-methoxyquinazolin-6-yloxy)-N-hydroxyheptanamide]

IC50 (HDAC): < 0.1 µM
Compound: C#Cc1cccc(CNc2ncnc3cc(OC)c(OCCCCCCC(=O)NO)cc23)c1 [Compound 90]

IC50 (HDAC): 1 to 10 µM
Compound: COc1cc2ncnc(Nc3ccc(F)c(Cl)c3)c2cc1OCCOc1ccc(CC(=O)NO)cc1 [Compound 91]

IC50 (HDAC): 1 to 10 µM
Compound: COc1cc2ncnc(Nc3ccc(F)c(Cl)c3)c2cc1NC(=O)Nc1ccc(C(=O)NO)cc1 [Compound 93]

IC50 (HDAC): > 10 µM
Compound: COc1cc2ncnc(Nc3ccc(F)c(Cl)c3)c2cc1OCCCCCCC(=O)N(C)O [Compound 94]

IC50 [16]: ≤ 5 µM
Compound: C#Cc1cccc(Nc2ncnc3cc(OCCOC)c(OCCOC)cc23)c1 [Erlotinib]
IC50 (Prostate_PC3): ≤ 5 µM
IC50 (Colon_HCT116): ≤ 5 µM
IC50 (Breast_MCF7): ≤ 5 µM
IC50 (Breast_SkBr3): ≤ 5 µM
effect on tumor growth / tumor size (A549 NSCLC Xenograft): did not significantly affect tumor size as compared to control
